# What was measured:
# human H-PGDS = human H-PGDS (Homo sapiens (Human), UniProt O60760); experiment: Hematopoietic prostaglandin D synthase (H-PGDS) inhibiting action; type: biochemical; conditions: for Inhibition Rate (%) 0.1 μM / inhibition at 0.1 µM: compound at 0.1 μM, relative to the control group, human H-PGDS, [14C] prostaglandin H2 10 μM; for IC50: inhibition concentration at 50% relative to H-PGDS, read-out: IC50; for inhibition at 0.1 µM: read-out: Inhibition Rate (%) 0.1 μM
# Procedure: The test was carried out according to the method of Urade, Y. et al. (J. Biol. Chem., 262, 3820-3825, (1987)). More specifically, the reaction mixture (49 μL) containing 100 mM Tris-HCl (pH 8.0), 1 mM reduced glutathione, 0.1 mg/mL γ-globulin, and human H-PGDS (q.s.), and a compound (final concentration: 0.01-100 μM) was preincubated at 25° C. for 5 minutes. A DMSO solution (final concentration: 1%) was added to the solvent control group. Subsequently, 1 μL of [^14C] prostaglandin H2 (final concentration: 10 μM) was added to start the reaction. One minute after the start of the reaction, 250 μL of a reaction stop solution (diethylether/methanol/1 M citric acid (30/4/1) at a temperature of −20° C. was added to stop the reaction. After the reaction was stopped, 50 μL of the upper-layer portion (organic solvent layer) was applied to a TLC plate and developed at −20° C. for 45 minutes (developing solvent: diethylether/methanol/acetic acid (90/2/1)). After drying the TLC plate, the TLC plate was exposed to an imaging plate for 1 to 24 hours, and the radioactivity corresponding to prostaglandin D2 (PGD2) was analyzed using an image analyzer (produced by Fujifilm Corporation). […]
# [1] = test system: PGD2 production in the nasal cavities of guinea pigs with antigen-induced rhinitis; experiment: PGD2 production inhibiting action in the nasal cavities of guinea pigs with antigen-induced rhinitis; type: in vivo; conditions: 30 mg/kg orally 1 hour before induction of rhinitis reaction; washing 30 minutes after induction; * = significance level below 0.05 vs control group
# Procedure: A physiological saline solution containing 1 mg/mL of ovalbumin was subcutaneously injected into the back of 5-week-old male Std: Hartley guinea pigs in an amount of 1 mL/body for active sensitization (initial sensitization). One week and two weeks after initial sensitization, 20 μL of a physiological saline solution containing 10 mg/mL of ovalbumin was instilled into each nasal cavity using a micropipette (sensitization by nasal administration). Three weeks after initial sensitization, 20 μL of a physiological saline solution containing 10 mg/mL of ovalbumin was instilled into each nasal cavity using a micropipette to induce a rhinitis reaction.
# 30 minutes after the induction of a rhinitis reaction, the nasal cavities were washed under pentobarbital sodium anesthesia. A nasal cavity washing liquid (phosphate buffered saline containing 3 mM of EDTA and 10 μM of indomethacin) was flushed using a Peristaltic Pump (Gilson, Inc.) in the direction from the trachea to the upper respiratory tract at a flow rate of 1 mL/min, and the liquid flowing out from the nasal cavities was collected for 1 minute. The collected liquid was centrifuged to separate the supernatant as the nasal cavity washing fluid. The concentration of PGD2 in the nasal cavity washing fluid was determined using an EIA kit (Prostaglandin D2-MOX EIA kit, Cayman Chemical).
# The test compound (30 mg/kg) was orally administered 1 hour before induction of a rhinitis reaction. A formula to calculate the rate of decrease in PGD2 in the nasal cavity washing fluid is shown below. Rate (%) of decrease in PGD2 in the nasal cavity washing fluid={(PGD2 concentration in the control group−PGD2 concentration in the compound-administered group)÷(PGD2 concentration in the control group−PGD2 concentration in the normal group)}×100
# 8 or more cases were obtained from each group to determine whether expression of the PGD2 production inhibiting action occurred, and the PGD2 concentration in the nasal cavity washing fluid was compared between the control group and each compound-administered group. […] When the significance level was below 0.05, the action was considered to be present and indicated by a symbol (*) in the table. Reference Example 18, known as an H-PGDS inhibitor, was used as a positive control substance.
# human H-PGDS, sequence (O60760 whole entry): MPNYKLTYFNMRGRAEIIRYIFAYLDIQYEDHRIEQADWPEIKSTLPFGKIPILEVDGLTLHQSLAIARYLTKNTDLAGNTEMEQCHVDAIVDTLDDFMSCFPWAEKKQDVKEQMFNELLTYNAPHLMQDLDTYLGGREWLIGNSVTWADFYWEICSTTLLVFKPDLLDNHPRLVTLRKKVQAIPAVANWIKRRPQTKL
Compound,Inhibition Rate (%) 0.1 μM (human H-PGDS),IC50 (human H-PGDS),inhibition at 0.1 µM (human H-PGDS),Rate (%) of decrease in PGD2 in the nasal cavity washing fluid [1]
4-(4-(4-((1-methylpyrrol-2-yl)-carbonyl)-1-piperazinecarbamoyl)piperidin-1-yl)-benzoic acid [Compound 1],57.7%,67 nM,–,–
"Cn1cccc1C(=O)N1CCN(C(=O)NC2CCN(c3ccc(C(=O)NCc4cccnc4)cc3)CC2)CC1 [Compound 2, 4-((1-methylpyrrol-2-yl)-carbonyl)-N-(1-(4-(pyridin-3-ylmethylcarbamoyl)phenyl)-piperidin-4-yl)-1-piperazinecarboxamide]",–,–,55.2%,–
"Cn1cccc1C(=O)N1CCN(C(=O)NC2CCN(c3ccc(C(=O)NCCN4CCOCC4)cc3)CC2)CC1 [Compound 3, 4-((1-methylpyrrol-2-yl)-carbonyl)-N-(1-(4-(2-morpholinoethylcarbamoyl)-phenyl)-piperidin-4-yl)-1-piperazinecarboxamide]",–,27 nM,69.1%,–
"Cn1cccc1C(=O)N1CCN(C(=O)NC2CCN(c3ccc(C(=O)N4CCOCC4)cc3)CC2)CC1 [Compound 4, 4-((1-methylpyrrol-2-yl)-carbonyl)-N-(1-(4-(4-morpholinylcarbonyl)phenyl)-piperidin-4-yl)-1-piperazinecarboxamide]",–,31 nM,69.8%,–
"Cn1cccc1C(=O)N1CCN(C(=O)NC2CCN(c3ccc(C(=O)N4CCCCC4)cc3)CC2)CC1 [Compound 5, 4-((1-methylpyrrol-2-yl)-carbonyl)-N-(1-(4-(1-piperidinylcarbonyl)phenyl)-piperidin-4-yl)-1-piperazinecarboxamide]",–,41 nM,67.6%,88.0* %
"Cn1cccc1C(=O)N1CCN(C(=O)NC2CCN(c3ccc(C(=O)N4CCCC4)cc3)CC2)CC1 [Compound 6, 4-((1-methylpyrrol-2-yl)-carbonyl)-N-(1-(4-(1-pyrrolidinylcarbonyl)phenyl)-piperidin-4-yl)-1-piperazinecarboxamide]",–,52 nM,63%,–
"Cn1cccc1C(=O)N1CCN(C(=O)NC2CCN(c3ccc(CCn4ccnn4)cc3)CC2)CC1 [Compound 7, 4-((1-methylpyrrol-2-yl)-carbonyl)-N-(1-(4-(2-(1,2,3-triazol-1-yl)-ethyl)-phenyl)-piperidin-4-yl)-1-piperazinecarboxamide]",–,15 nM,75%,–
"Cn1cccc1C(=O)N1CCN(C(=O)NC2CCN(c3ccc(CCCn4cncn4)cc3)CC2)CC1 [Compound 8, 4-((1-methylpyrrol-2-yl)-carbonyl)-N-(1-(4-(3-(1,2,4-triazol-1-yl)-propyl)-phenyl)-piperidin-4-yl)-1-piperazinecarboxamide]",–,–,60.6%,–
"Cc1nc(C)n(CCCc2ccc(N3CCC(NC(=O)N4CCN(C(=O)c5cccn5C)CC4)CC3)cc2)n1 [Compound 9, 4-((1-methylpyrrol-2-yl)-carbonyl)-N-(1-(4-(3-(3,5-dimethyl-1,2,4-triazol-1-yl)-propyl)-phenyl)-piperidin-4-yl)-1-piperazinecarboxamide]",–,61 nM,54.2%,–
"Cn1cccc1C(=O)N1CCN(C(=O)NC2CCN(c3ccc(CCCn4ccnn4)cc3)CC2)CC1 [Compound 10, 4-((1-methylpyrrol-2-yl)-carbonyl)-N-(1-(4-(3-(1,2,3-triazol-1-yl)-propyl)-phenyl)-piperidin-4-yl)-1-piperazinecarboxamide]",–,27 nM,74.8%,–
"Cn1cccc1C(=O)N1CCN(C(=O)NC2CCN(c3ccc(C=CC(=O)N4CCOCC4)cc3)CC2)CC1 [Compound 11, 4-((1-methylpyrrol-2-yl)-carbonyl)-N-(1-(4-(3-morpholino-3-oxopropen-1-yl)-phenyl)-piperidin-4-yl)-1-piperazinecarboxamide]",–,–,66.7%,–
"Cn1cccc1C(=O)N1CCN(C(=O)NC2CCN(c3ccc(CCC(=O)N4CCOCC4)cc3)CC2)CC1 [Compound 12, 4-((1-methylpyrrol-2-yl)-carbonyl)-N-(1-(4-(3-morpholino-3-oxopropyl)-phenyl)-piperidin-4-yl)-1-piperazinecarboxamide]",–,–,53.6%,–
"Cn1cccc1C(=O)N1CCN(C(=O)C2CCN(c3ccc(C(=O)O)cn3)CC2)CC1 [Compound 13, 6-(4-(4-((1-methylpyrrol-2-yl)-carbonyl)-1-piperazinecarbamoyl)-piperidin-1-yl)-nicotinic acid]",52.8%,–,–,–
"Cn1cccc1C(=O)N1CCN(C(=O)NC2CCN(c3ccc(C(=O)N4CCOCC4)cn3)CC2)CC1 [Compound 14, 4-((1-methylpyrrol-2-yl)-carbonyl)-N-(1-(5-(4-morpholinylcarbonyl)pyridin-2-yl)-piperidin-4-yl)-1-piperazinecarboxamide]",–,–,57.2%,–
"CCn1cccc1C(=O)N1CCN(C(=O)NC2CCN(c3ccc(C(=O)NCCN4CCOCC4)cc3)CC2)CC1 [Compound 15, 4-((1-ethylpyrrol-2-yl)-carbonyl)-N-(1-(4-(2-morpholinoethylcarbamoyl)phenyl)-piperidin-4-yl)-1-piperazinecarboxamide]",–,39 nM,69.9%,–
"CCn1cccc1C(=O)N1CCN(C(=O)NC2CCN(c3ccc(CCn4ccnn4)cc3)CC2)CC1 [Compound 16, 4-((1-ethylpyrrol-2-yl)-carbonyl)-N-(1-(4-(2-(1,2,3-triazol-1-yl)-ethyl)-phenyl)-piperidin-4-yl)-1-piperazinecarboxamide]",–,–,68.4%,–
"O=C(NCCN1CCOCC1)c1ccc(N2CCC(NC(=O)N3CCN(C(=O)c4cccs4)CC3)CC2)cc1 [Reference Example 4, 4-((thiophen-2-yl)-carbonyl)-N-(1-(4-(2-morpholinoethylcarbamoyl)-phenyl)-piperidin-4-yl)-1-piperazinecarboxamide, reference compound]",–,–,29.2%,–
"O=C(NCCN1CCOCC1)c1ccc(N2CCC(NC(=O)N3CCN(C(=O)c4ccccc4)CC3)CC2)cc1 [Reference Example 11, 4-benzoyl-N-(1-(4-(2-morpholinoethylcarbamoyl)-phenyl)-piperidin-4-yl)-1-piperazinecarboxamide, reference compound]",–,–,30%,–
"O=C(Nc1nc2ccc(Br)cc2s1)N1CCN(C(=O)c2cccc(F)c2)CC1 [Reference Example 12, 4-(3-fluorobenzoyl)-piperazine-1-carboxylic acid-(6-bromobenzothiazol-2-yl)-amide, reference compound]",–,–,45.1%,7.9%
"Cc1cc2nc(NC(=O)N3CCN(C(=O)c4cccc(F)c4)CC3)sc2cc1C [Reference Example 13, 4-(3-fluorobenzoyl)-piperazine-1-carboxylic acid-(5,6-dimethylbenzothiazol-2-yl)-amide, reference compound]",–,–,31.6%,3.9%
"Cc1ccc2nc(NC(=O)N3CCN(C(=O)c4cccc(F)c4)CC3)sc2c1 [Reference Example 14, 4-(3-fluorobenzoyl)-piperazine-1-carboxylic acid-(6-methylbenzothiazol-2-yl)-amide, reference compound]",–,–,27.9%,26.6%
"COc1ccc2nc(NC(=O)N3CCN(C(=O)c4cccc(F)c4)CC3)sc2c1 [Reference Example 15, 4-(3-fluorobenzoyl)-piperazine-1-carboxylic acid-(6-methoxybenzothiazol-2-yl)-amide, reference compound]",–,–,20.9%,−27.4%
CON(C)C(=O)c1[nH]c(C)c(-c2nc3ccc(C(=O)c4ccccc4)cc3[nH]2)c1C [Reference Example 18],–,–,–,77.0* %

# Reference: US8765750B2, “Piperazine compound having a PGDS inhibitory effect” (Taiho Pharmaceutical Co., Ltd., priority 2010, dated 2014)
